Measurements from article PMC10537229, “Antimicrobial Peptides Originating from Expression Libraries of Aurelia aurita and Mnemiopsis leidyi Prevent Biofilm Formation of Opportunistic Pathogens” (Microorganisms, 2023).
“Also recorded” adds a separate entry of the source.

Key:
S. aureus [1] = experiment: Growth of planktonic-growing pathogens (turbidity at 600 nm); format: cell-based, Staphylococcus aureus; conditions: 18 h; for turbidity (600 nm), S. aureus: 112.5 µg/mL peptide, LB, 80 rpm, 37 °C, mean of 2 biological x 8 technical replicates, control 1.37192917; for reduction of planktonic growth of S. aureus: 112.5 µg/mL, versus control without peptide
Description: (§1) In addition, the potential growth-inhibiting effects of synthetic peptides were tested on planktonic-growing pathogens. Again, 3 × 10^8 cells/mL diluted in LB medium were aliquoted in 96-well plates (200 µL for each cavity). Synthetic peptides were added to two selected final concentrations of 3.5 µg/mL and 112.5 µg/mL at the beginning of the experiment. MTPs were closed with gas-permeable membranes and gently shaken at 80 rpm and 37 °C (P. aeruginosa, S. aureus, and S. epidermidis) or 30 °C (K. oxytoca) for 18 h. A comparative endpoint determination (growth control, peptide control IDR-1018, and identified peptides) of the turbidity at 600 nm was measured with plate reader Spectra max Plus 384. An unpaired t-test was conducted as a statistical hypothesis test to determine the significance (p-value) of growth differences.

P. aeruginosa PAO1 = experiment: Biofilm prevention in vitro assay (crystal violet, static); format: cell-based, Pseudomonas aeruginosa; conditions: synthetic peptide 0.4-112.5 µg/mL, 18 h
Description: (§2) The opportunistic pathogenic bacteria K. oxytoca (DSM 7342, M5a1-type strain), P. aeruginosa PAO1 (DSM 1707, pathogenic-type strain), S. epidermidis RP62A (DSM 28319, clinical isolate from catheter sepsis), and S. aureus (DSM 11823, clinical isolate) were grown in 5 mL LB medium overnight at below-indicated temperatures. The cell concentrations of the overnight cultures were analyzed with Neubauer cell counting and set to 3 × 10^8 cells/mL using GC minimal medium (with 1% (v/v) glycerol and 0.3% (w/v) casamino acids) for K. oxytoca and Caso bouillon (17 g/L casein peptone, 3 g/L soybean peptone, 5 g/L NaCl, 2.5 g/L K2HPO4, and 2.5 g/L glucose) for the remaining strains in the crystal violet assay. Cultures were aliquoted in 96-well plates (180/195 µL for each cavity). Cell-free size-fractionated cell extracts (20 µL) and synthesized peptides (various concentrations, 5 µL) were added to the cultures. MTPs were closed with gas-permeable membranes (Breathe-Easy®, Diversified Biotech, Dedham, MA, USA) and incubated at 37 °C (P. aeruginosa, S. aureus, and S. epidermidis) or 30 °C (K. oxytoca) for 18 h without shaking. Three biological replicates were performed, each with eight technical replicates. Medium controls were performed for normalization. Biofilm formation was monitored and quantified using the crystal violet assay. Following an 18 h incubation period, the cell cultures were removed, and the wells underwent two washes with H2O. Biofilms that developed and adhered to the surfaces were subjected to staining using 200 μL of a 0.1% crystal violet solution (Carl Roth, Karlsruhe, Germany) for 10 min at room temperature (RT). The stained biofilms were left to air dry after eliminating the crystal violet solution through two H2O washes. A total of 200 μL of 96% ethanol was introduced into each stained well to solubilize the dye, and incubation at RT for 15 min followed. Biofilm formation was assessed by measuring the absorbance of resolved crystal violet at 590 nm with the plate reader Spectra max Plus 384 (Molecular Devices, Ismaning; Germany). The screening procedure is depicted in Figure S1.

K. oxytoca [2] = experiment: Growth of planktonic-growing pathogens (turbidity at 600 nm); format: cell-based, Klebsiella oxytoca; conditions: 112.5 µg/mL peptide, LB, 18 h, 80 rpm, 30 °C; mean of 2 biological x 8 technical replicates; control 1.21326667
Description: as §1

S. aureus [3] = experiment: Biofilm prevention in vitro assay (crystal violet, static); format: cell-based, Staphylococcus aureus; conditions: synthetic peptide 0.4-112.5 µg/mL, 18 h
Description: as §2

K. oxytoca [4] = experiment: as above; format: cell-based, Klebsiella oxytoca; conditions: 18 h; for effect on K. oxytoca biofilm formation (in words) / reduction of K. oxytoca biofilm formation over concentration range: synthetic peptide 0.4-112.5 µg/mL; for reduction of K. oxytoca biofilm formation over concentration range: maximum or overall reduction; for reduction of K. oxytoca biofilm formation at 112.5 µg/mL: synthetic peptide at highest concentration 112.5 µg/mL
Description: as §2

P. aeruginosa = experiment: Growth of planktonic-growing pathogens (turbidity at 600 nm); format: cell-based, Pseudomonas aeruginosa; conditions: 18 h; for turbidity (600 nm), P. aeruginosa: 112.5 µg/mL peptide, LB, 80 rpm, 37 °C, mean of 2 biological x 8 technical replicates, control 1.2788369; for reduction of planktonic growth of P. aeruginosa: 112.5 µg/mL, versus control without peptide
Description: as §1

S. epidermidis = experiment: as above; format: cell-based, Staphylococcus epidermidis; conditions: 112.5 µg/mL peptide, LB, 18 h, 80 rpm, 37 °C; mean of 2 biological x 8 technical replicates; control 1.3398
Description: as §1

S. epidermidis RP62A = experiment: Biofilm prevention in vitro assay (crystal violet, static); format: cell-based, Staphylococcus epidermidis; conditions: 18 h; for effect on S. epidermidis biofilm formation (in words) / reduction of S. epidermidis biofilm formation over concentration range: synthetic peptide 0.4-112.5 µg/mL; for reduction of S. epidermidis biofilm formation over concentration range: maximum or range of reduction
Description: as §2

K. oxytoca M5aI = experiment: Dynamic biofilm formation in microfluidic flow cell (Syto9, CLSM); format: cell-based, Klebsiella oxytoca; conditions: peptide 10 ng/channel, GC medium, flow 15 µL/h, 24 h, 30 °C, mean ± SD of four biological x four technical replicates; for biofilm thickness: medium control 11 ± 6 µm; for biofilm volume: medium control 112 ± 62 µm^3
Text: The microfluidic flow cell system comprises a polymethyl methacrylate corpus with a single channel (1 × 8 × 0.1 mm). Two inlets and one outlet exist. A borosilicate glass (24 × 60 × 0.17 mm; Carl Roth, Karlsruhe, Germany) was fixed with the adhesive Black-Seal silicone (Weicon, Münster, Germany). Microliter syringes (Innovative Labor System GmbH, Stützenbach, Germany) were connected via polytetrafluoroethylene (PTFE) tubes (0.3 mm × 0.6 mm) (Bola, Grünsfeld, Germany) with the in- and outlets and clamped into a syringe pump (Model: 220) (KD Scientific, Holliston, MA, USA). The channel was sterilized by rinsing 70% EtOH for 24 h at a flow rate of 20 µL/h. Afterwards, the remaining ethanol was washed out with sterile water at 20 μL/h for 1 h. Subsequently, the channel was equilibrated with GC medium at 20 μL/h for 2 h. Inoculation was conducted with a cell suspension of 1 × 10^9 cells/mL, generated from an overnight culture of K. oxytoca M5aI. Initial cell adhesion was ensured by incubation at 30 °C for 1 h without any flow. Next, the channel was continuously rinsed at 15 μL/h with GC medium injected within the first inlet. The synthetic peptides IDR-1018 (biofilm-preventing control peptide, [47, 48], BiP_Aa_2, BiP_Aa_5, and BiP_Aa_6 were diluted in GC medium to a concentration of 25 µg/mL and injected within the second inlet. Thus, the final peptide concentration was 12.5 µg/mL, corresponding to 10 ng peptide within the 0.8 µL channel. Biofilm formation was conducted at a flow rate of 15 µL/h for 24 h at 30 °C. The biofilm formation of K. oxytoca M5aI was further studied without adding peptides. Four biological replicates were conducted for each treatment.
Biofilms were stained with the fluorescent dye Syto9 (488 nm) (Life Technologie, Carlsbad, CA, USA) and analyzed using the LSM 700 confocal laser scanning microscope (Zeiss, Oberkochen, Germany). Therefore, the microfluidic flow cells were washed with GC medium at 3 µL/min for 15 min. The channel was then filled with a 1:1000 dilution of the fluorescent dye Syto9 and incubated in the dark at RT for 30 min. Dye residues were removed by rinsing GC medium at 3 μL/min for 15 min. Four image stacks were recorded per flow cell with optical sections of 0.9 µm per z-step. The digital image acquisition, three-dimensional reconstruction, and calculation of the biofilm parameters were performed with the software “Zen Black” (version 14.0.22.201) (Zeiss, Oberkochen, Germany) and the microscopy image analysis software “Imaris” (version 9.9.0) (Oxford Instruments, Abingdon, UK).

[5] = Dimerization of peptide with increasing concentration (preliminary results); format: physicochemical
[6] = tested on: K. oxytoca, P. aeruginosa, S. epidermidis, and S. aureus; experiment: Planktonic growth, statements on all pathogens; format: cell-based; conditions: 18 h; for effect on planktonic growth (in words), high concentration: 112.5 µg/mL, all strains
Description: as §1

planktonic cells = conditions: weak direct antimicrobial activity on planktonic cells; cited from earlier work
Description: (§3) The biofilm prevention was assayed parallel to the well-described 12 amino acids’ cationic AMP (VRLIVAVRIWRR), named IDR-1018 [19, 47, 48]. This innate defense component is derived from the natural bovine peptide Bactenecin and was reported to show antibiofilm activity against P. aeruginosa, E. coli, Acinetobacter baumannii, K. pneumoniae, Methicillin-resistant S. aureus, Salmonella Typhimurium, and Burkholderia cenocepacia. The inhibitory activity of IDR-1018 is based on the induced dispersal of cells from biofilms at very low peptide concentrations (0.8 µg/mL). The underlying ...

biofilm cells = conditions: cited from earlier work
Description: as §3

| Sequence | turbidity (600 nm), S. aureus (S. aureus [1]) | reduction of planktonic growth of S. aureus (S. aureus [1]) | effect on P. aeruginosa biofilm formation (in words) (P. aeruginosa PAO1) | turbidity (600 nm), K. oxytoca (K. oxytoca [2]) | effect on S. aureus biofilm formation (in words) (S. aureus [3]) | effect on K. oxytoca biofilm formation (in words) (K. oxytoca [4]) | turbidity (600 nm), P. aeruginosa (P. aeruginosa) | reduction of planktonic growth of P. aeruginosa (P. aeruginosa) | turbidity (600 nm), S. epidermidis (S. epidermidis) | effect on S. epidermidis biofilm formation (in words) (S. epidermidis RP62A) | reduction of K. oxytoca biofilm formation over concentration range (K. oxytoca [4]) | biofilm thickness (K. oxytoca M5aI) [µm] | biofilm volume (K. oxytoca M5aI) [µm^3] | reduction of S. epidermidis biofilm formation over concentration range (S. epidermidis RP62A) | effect on planktonic growth (in words), high concentration [6] | reduction of K. oxytoca biofilm formation at 112.5 µg/mL (K. oxytoca [4]; versus biofilm control (100%)) [%] | also measured |
| --- | --- | --- | --- | --- | --- | --- | --- | --- | --- | --- | --- | --- | --- | --- | --- | --- | --- |
| GRTTLYKKVGFFFFF [BiP_Ml_3, synthetic peptide from sORF of M. leidyi EST clone 010_9A] | 1.345 | 1.5–5% | no significant effect; also recorded: slight interference | 1.255 | no significant effect; also recorded: could not interfere with biofilm formation | no significant effect | 1.255 | 1.5–5% | 1.367 | growth increase at low peptide doses | – | – | – | – | – | – | reduction of S. epidermidis biofilm formation at 112.5 µg/mL (S. epidermidis RP62A; synthetic peptide at highest concentration 112.5 µg/mL, versus biofilm control (100%)): 38% |
| QLFCTKLSPT [BiP_Aa_2, synthetic peptide from sORF of A. aurita EST clone 112_6C] | 1.304 | 1.5–5% | negligible impact | 1.204 | negligible impact; also recorded: could not interfere with biofilm formation | no significant change in biofilm formation until 14.1 µg/mL | 1.2593 | 1.5–5% | 1.368 | appeared to reverse with increasing concentrations | up to 43% | 8 ± 3 | 34 ± 12 | 45% | – | – | aggregation with increasing peptide concentration [5]: dimerization |
| THSTMNFELHQRSIQSCSPKLL [BiP_Aa_4, synthetic peptide from sORF of A. aurita EST clone 127_8E] | 1.347 | – | limited effect | 1.219 | limited effect; also recorded: could not interfere with biofilm formation | limited effect | 1.281 | – | 1.386 | – | – | – | – | 23–47% | did not significantly inhibit planktonic growth | – | – |
| TNFTRKFPVINSSPHQWYLKD [BiP_Aa_6, synthetic peptide from sORF of A. aurita EST clone 127_8H] | 1.38 | – | initially increased and then gradually decreased, approaching control levels | 1.2508 | – | – | 1.284 | – | 1.393 | – | – | ≤ 8 ± 1 | 64 ± 36 | 43% | did not significantly inhibit planktonic growth | 26 | reduction of S. aureus biofilm formation over concentration range (S. aureus [3]; maximum or overall reduction): 6–23% |
| VRLIVAVRIWRR [IDR-1018, 12 amino acids' cationic AMP, biofilm-preventing control peptide derived from bovine Bactenecin, reference compound] | 1.036 | – | no interference; also recorded: almost unaffected | 1.187 | – | – | 1.23 | – | 1.203 | only affected to a minor extent | 50% | 6 ± 2 | 32 ± 16 | – | significantly reduced the planktonic growth of all strains | 70 | MIC (planktonic cells): 19 µg/mL; peptide concentration causing cell death of the biofilm cells (biofilm cells; higher concentrations): 10 µg/mL; peptide concentration inducing dispersal of cells from biofilms (biofilm cells; very low peptide concentrations): 0.8 µg/mL; reduction of K. oxytoca biofilm formation at 3.5 µg/mL (K. oxytoca [4]; synthetic peptide 3.5 µg/mL, versus biofilm control (100%), on average): 30%; effect on planktonic growth (in words), low concentration ([6]; 3.5 µg/mL, all pathogens): no effect was revealed |
